# What was measured:
# JAK2 = settings: peripheral neuropathy and Wernicke encephalopathy; termination from phase III clinical trials; cited from earlier work
# MPN cells = assay: Colony forming unit (CFU) assay of MPN cells; format: cell-based, mouse; settings: in vitro CFU assay
# Procedure: To test this, hematopoietic CFU assays were performed using mouse bone marrow-derived Kit+ cells transduced with retroviruses expressing, pMSCV-Ires-GFP (vector), Jak2-V617F-Ires-GFP, Mpl-W515L-ires-GFP, and CSF3R-T618IIres-GFP.
# Given the limitations of in vitro assays, performed in vivo experiments were then performed using bone marrow transduction transplantation assays. For in vivo analysis, mice were transplanted with 80-100 thousand bone marrow Kit^+ cells expressing Jak2-V617F-ires-GFP, CSF3R-T618I-Ires-GFP and MSCV-Ires-GFP (vector control). Mice received […] developed fatal MPD with a disease latency of 4-6 months.
# BCR/ABL induced leukemia = assay: Retroviral bone marrow transduction transplantation CML model; settings: mouse model of CML
# Procedure: Kit^+ cells from mouse bone marrow were transduced with BCR/ABL-IRES-YFP retroviruses. Five thousand GFP^+ cells were plated for in vitro CFU assays, and 40,000 YFP^+ cells were transplanted for in vivo leukemia development in lethally irradiated C57Bl6 mice. […] Data shown are from two independent transplant experiments (n p=0.017). Below, Bar graphs illustrating leukemic burden in mice transplanted with BCR-ABL Kit^+ cells, measured by the level of YFP in peripheral blood as a surrogate for BCR/ABL expression.
# For in vivo analysis, mice were transplanted with 40 thousand bone marrow Kit^+ cells expressing BCR/ABL and YFP.
# To test c-Fos and Dusp1 as potential drug targets, in vitro and in vivo experiments were performed using small molecule inhibitors of c-Fos and Dusp1 (FIG. 5A). […] Representative data shown are the mean colony number from two independent experiments±S.D. (*=p<0.01, **=p<0.002). […] Data shown are from two independent transplant experiments (n=12; p=0.0285).
# Next, in vivo efficacy was examined using a retroviral bone marrow transduction transplantation CML model.
# K562 cells = assay: Survival of K562 cells treated with imatinib +/- cytokines; format: cell-based, human
# Procedure: (J) Real-time qPCR analysis illustrating expression of c-FOS, DUSP1, and ZFP36 in primary CML patient peripheral blood mononuclear cells normalized to CD34+ cells from normal volunteers (black bar). Four chronic phase (CP) and three blast crisis (BC) patients were analyzed.
# BaF3 cells were generated with tetracycline-inducible expression of BCR/ABL (BaF3-LTBA, FIG. 3A), as well as those with constitutive BCR/ABL expression (BAF3-BCR/ABL, FIG. 3B).
smiles,measurement,setting,value
Cc1cc(Nc2nc(N[C@@H](C)c3ncc(F)cn3)ncc2Cl)n[nH]1 [AZD1480],neurological toxicity,JAK2,profound neurological toxicities
"O=C1/C(=C/c2ccccc2)C(NC2CCCCC2)c2ccccc21 (stereo not drawn) [BCI, (E)-2-benzylidene-3-(cyclohexylamino)-2,3-dihydro-1H-inden-1-one]",targeting of MPN cells,MPN cells,selective targeting of MPN cells
same,bioavailability,BCR/ABL induced leukemia,bioavailable
same,target inhibition in vivo,BCR/ABL induced leukemia,inhibits its designated target
Cc1cnc(Nc2ccc(OCCN3CCCC3)cc2)nc1Nc1cccc(S(=O)(=O)NC(C)(C)C)c1 [fedratinib],neurological toxicity,JAK2,profound neurological toxicities
Cc1ccc(NC(=O)c2ccc(CN3CCN(C)CC3)cc2)cc1Nc1nccc(-c2cccnc2)n1 [imatinib],effect of erythropoietin on imatinib response,K562 cells,erythropoietin conferred imatinib resistance
